Earlier results, collected in patent US20090088578A1, “NUCLEAR MAGNETIC RESONANCE IMAGING OF SELECTIVE SMALL MOLECULE DRUGS AS CONTRAST AGENTS” (priority 2007, published 2009).

Molecular target: T1, aldehyde dehydrogenase 1 (Homo sapiens, UniProt P00352)
T1 sequence (P00352 1-501): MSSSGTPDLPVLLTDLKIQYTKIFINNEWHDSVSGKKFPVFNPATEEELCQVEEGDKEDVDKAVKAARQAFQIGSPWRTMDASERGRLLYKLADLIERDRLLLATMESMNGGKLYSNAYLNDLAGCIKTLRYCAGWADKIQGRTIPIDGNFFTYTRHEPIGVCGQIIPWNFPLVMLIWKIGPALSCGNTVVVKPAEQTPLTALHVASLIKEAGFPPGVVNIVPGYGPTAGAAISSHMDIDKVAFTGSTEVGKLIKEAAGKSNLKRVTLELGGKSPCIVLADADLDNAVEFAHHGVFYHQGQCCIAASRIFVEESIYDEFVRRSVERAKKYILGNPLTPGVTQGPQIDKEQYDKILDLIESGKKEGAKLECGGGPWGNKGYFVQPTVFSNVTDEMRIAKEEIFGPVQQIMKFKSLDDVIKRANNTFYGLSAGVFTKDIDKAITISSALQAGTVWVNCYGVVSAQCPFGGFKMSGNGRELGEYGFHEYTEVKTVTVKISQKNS
Settings: one of its two known protein targets

Which “affinity for aldehyde dehydrogenase 1” value does the source give for `CCN(CC)CCCC(C)Nc1ccnc2cc(Cl)ccc12` (stereo not shown) [Chloroquine, chloroquine] here?
Its value is “low affinity”.
